# Results from patent US20240252506A1 (Hoffmann-La Roche Inc., priority 2021, published 2024).
# Read-outs that look alike come from different tables or passages of the source.
# Test system: Escherichia coli ATCC 25922
# Assay: Minimal Inhibitory Concentration (MIC) determination, broth microdilution (CLSI M07-A10)
# Type: cell-based
# Details: for Escherichia coli growth inhibition MIC: strain Escherichia coli ATCC 25922, 18-24 hours at 35±2° C.; for MIC: Escherichia coli
# Procedure, shortened: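 Broth microdilution per CLSI M07-A10; compounds in 2-fold serial dilutions; inoculum from 0.5 McFarland suspension diluted 1:200 in broth. Incubated 18-24 h at 35±2° C in ambient air; MIC (μg/mL) taken as lowest concentration giving no visible growth.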
# [1] = lowest concentration for complete growth inhibition (no visible growth)
# [2] = ATCC25922, strain Escherichia coli ATCC 25922, 18-24 hours at 35±2° C., lowest concentration for complete growth inhibition (no visible growth), read-out: Escherichia coli growth inhibition MIC
Escherichia coli growth inhibition MIC [1],MIC [2],SMILES,other results
0.125 µg/mL,–,"O=C1COc2ncc(N3CC4(CCN(CC5Cc6cc7nc([C@@H]8CCN8)oc7c(F)c6C5)CC4)OC3=O)nc2N1 (stereo partly drawn) [Example 107, 6-[8-[[2-[(2S)-azetidin-2-yl]-8-fluoro-6,7-dihydro-5H-cyclopenta[f][1,3]benzoxazol-6-yl]methyl]-2-oxo-1-oxa-3,8-diazaspiro[4.5]decan-3-yl]-4H-pyrazino[2,3-b][1,4]oxazin-3-one]",–
–,0.25 µg/mL,"CNCCn1nc2c(F)c3c(c(F)c2n1)CC(CN1CCC2(CC1)CN(c1cnc4c(n1)NC(=O)CO4)C(=O)O2)C3.O=CO [Example 117, 6-[8-[[4,8-difluoro-2-[2-(methylamino)ethyl]-6,7-dihydro-5H-cyclopenta[f]benzotriazol-6-yl]methyl]-2-oxo-1-oxa-3,8-diazaspiro[4.5]decan-3-yl]-4H-pyrazino[2,3-b][1,4]oxazin-3-one; formic acid]",–
–,0.5 µg/mL,O=C1COc2ncc(N3CC4(CCN(CC5Cc6c(c(F)c7nn(CCNC8CC8)nc7c6F)C5)CC4)OC3=O)nc2N1 [Example 122],–
0.25 µg/mL,–,"O=C1COc2ncc(N3CC4(CCN(CC5Cc6cc7nc([C@H]8CCN8)oc7c(F)c6C5)CC4)OC3=O)nc2N1 (stereo partly drawn) [Example 140, 6-[8-[[2-[(2R)-azetidin-2-yl]-8-fluoro-6,7-dihydro-5H-cyclopenta[f][1,3]benzoxazol-6-yl]methyl]-2-oxo-1-oxa-3,8-diazaspiro[4.5]decan-3-yl]-4H-pyrazino[2,3-b][1,4]oxazin-3-one]",–
0.5 µg/mL,–,"O=C1COc2ncc(N3CC4(CCN(CC5Cc6cc7nc([C@@H]8C[C@@H](O)CN8)oc7c(F)c6C5)CC4)OC3=O)nc2N1 (stereo partly drawn) [Example 142, 6-[8-[[8-Fluoro-2-[(2S,4R)-4-hydroxypyrrolidin-2-yl]-6,7-dihydro-5H-cyclopenta[f][1,3]benzoxazol-6-yl]methyl]-2-oxo-1-oxa-3,8-diazaspiro[4.5]decan-3-yl]-4H-pyrazino[2,3-b][1,4]oxazin-3-one]",–
–,1 µg/mL,"C[C@H](C(=O)NCCn1nnc2c(F)c3c(c(F)c21)CC(CN1CCC2(CC1)CN(c1cnc4c(n1)NC(=O)CO4)C(=O)O2)C3)N(C)C (stereo partly drawn) [Example 149, (2R)—N-[2-[4,8-Difluoro-6-[[2-oxo-3-(3-oxo-4H-pyrazino[2,3-b][1,4]oxazin-6-yl)-1-oxa-3,8-diazaspiro[4.5]decan-8-yl]methyl]-6,7-dihydro-5H-cyclopenta[f]benzotriazol-1-yl]ethyl]-2-(dimethylamino)propanamide]",–
–,1 µg/mL,"C[C@H](C(=O)NCCn1nc2c(F)c3c(c(F)c2n1)CC(CN1CCC2(CC1)CN(c1cnc4c(n1)NC(=O)CO4)C(=O)O2)C3)N(C)C [Example 150, (2R)-N[2-[4,8-difluoro-6-[[2-oxo-3-(3-oxo-4H-pyrazino[2,3-b][1,4]oxazin-6-yl)-1-oxa-3,8-diazaspiro[4.5]decan-8-yl]methyl]-6,7-dihydro-5H-cyclopenta[f]benzotriazol-2-yl]ethyl]-2-(dimethylamino)propanamide]",–
–,2 µg/mL,"CC(=O)N(C)CCn1nc2c(F)c3c(c(F)c2n1)CC(CN1CCC2(CC1)CN(c1cnc4c(n1)NC(=O)CO4)C(=O)O2)C3 [Example 154, N-[2-[4,8-difluoro-6-[[2-oxo-3-(3-oxo-4H-pyrazino[2,3-b][1,4]oxazin-6-yl)-1-oxa-3,8-diazaspiro[4.5]decan-8-yl]methyl]-6,7-dihydro-5H-cyclopenta[f]benzotriazol-2-yl]ethyl]-N-methyl-acetamide]",–
–,1 µg/mL,"CN(C)CC(=O)N(C)CCn1nc2c(F)c3c(c(F)c2n1)CC(CN1CCC2(CC1)CN(c1cnc4c(n1)NC(=O)CO4)C(=O)O2)C3 [Example 155, N-[2-[4,8-difluoro-6-[[2-oxo-3-(3-oxo-4H-pyrazino[2,3-b][1,4]oxazin-6-yl)-1-oxa-3,8-diazaspiro[4.5]decan-8-yl]methyl]-6,7-dihydro-5H-cyclopenta[f]benzotriazol-2-yl]ethyl]-2-(dimethylamino)-N-methyl-acetamide]",–
–,0.25 µg/mL,"O=C1COc2ncc(N3CC4(CCN(CC5Cc6c(c(F)c7nn(CCNC(=O)[C@H]8CCCN8)nc7c6F)C5)CC4)OC3=O)nc2N1 [Example 158, (2R)—N-[2-[4,8-Difluoro-6-[[2-oxo-3-(3-oxo-4H-pyrazino[2,3-b][1,4]oxazin-6-yl)-1-oxa-3,8-diazaspiro[4.5]decan-8-yl]methyl]-6,7-dihydro-5H-cyclopenta[f]benzotriazol-2-yl]ethyl]pyrrolidine-2-carboxamide]",–
–,0.25 µg/mL,"CNCC(=O)NCCn1nc2c(F)c3c(c(F)c2n1)CC(CN1CCC2(CC1)CN(c1cnc4c(n1)NC(=O)CO4)C(=O)O2)C3 [Example 159, N-[2-[4,8-difluoro-6-[[2-oxo-3-(3-oxo-4H-pyrazino[2,3-b][1,4]oxazin-6-yl)-1-oxa-3,8-diazaspiro[4.5]decan-8-yl]methyl]-6,7-dihydro-5H-cyclopenta[f]benzotriazol-2-yl]ethyl]-2-(methylamino)acetamide]",–

# The remaining lines, values behind:
SMILES,Escherichia coli growth inhibition MIC [1],MIC [2],other results
"C[C@H](N)Cn1nc2c(F)c3c(c(F)c2n1)CC(CN1CCC2(CC1)CN(c1cnc4c(n1)NC(=O)CO4)C(=O)O2)C3 [Example 123, 6-[8-[[2-[(2S)-2-aminopropyl]-4,8-difluoro-6,7-dihydro-5H-cyclopenta[f]benzotriazol-6-yl]methyl]-2-oxo-1-oxa-3,8-diazaspiro[4.5]decan-3-yl]-4H-pyrazino[2,3-b][1,4]oxazin-3-one; formic acid]",–,–,"MIC (ATCC25922, read-out: Escherichia coli growth inhibition MIC, strain Escherichia coli ATCC 25922, 18-24 hours at 35±2° C., lowest concentration for complete growth inhibition (no visible growth)): 0.125 µg/mL"
"C[C@H](N)Cn1cnc2c(F)c3c(c(F)c21)CC(CN1CCC2(CC1)CN(c1cnc4c(n1)NC(=O)CO4)C(=O)O2)C3 (stereo partly drawn) [Example 128, 6-[8-[[1-[(2S)-2-aminopropyl]-4,8-difluoro-6,7-dihydro-5H-cyclopenta[f]benzimidazol-6-yl]methyl]-2-oxo-1-oxa-3,8-diazaspiro[4.5]decan-3-yl]-4H-pyrazino[2,3-b][1,4]oxazin-3-one]",–,0.25 µg/mL,–
"C[C@H](N)Cn1cnc2c(F)c3c(c(F)c21)CC(CN1CCC2(CC1)CN(c1cnc4c(n1)NC(=O)CO4)C(=O)O2)C3 (stereo partly drawn) [Example 129, 6-[8-[[1-[(2S)-2-aminopropyl]-4,8-difluoro-6,7-dihydro-5H-cyclopenta[f]benzimidazol-6-yl]methyl]-2-oxo-1-oxa-3,8-diazaspiro[4.5]decan-3-yl]-4H-pyrazino[2,3-b][1,4]oxazin-3-one; formic acid]",0.25 µg/mL,–,–
"N[C@H]1COC[C@@H]1c1nc2cc3c(c(F)c2o1)CC(CN1CCC2(CC1)CN(c1cnc4c(n1)NC(=O)CO4)C(=O)O2)C3 (stereo partly drawn) [Example 138, 6-[8-[[2-[(3R,4R)-4-Aminotetrahydrofuran-3-yl]-8-fluoro-6,7-dihydro-5H-cyclopenta[f][1,3]benzoxazol-6-yl]methyl]-2-oxo-1-oxa-3,8-diazaspiro[4.5]decan-3-yl]-4H-pyrazino[2,3-b][1,4]oxazin-3-one]",–,1 µg/mL,–
"N[C@H]1COC[C@@H]1c1nc2cc3c(c(F)c2o1)CC(CN1CCC2(CC1)CN(c1cnc4c(n1)NC(=O)CO4)C(=O)O2)C3 (stereo partly drawn) [Example 139, 6-[8-[[2-[(3R,4R)-4-Aminotetrahydrofuran-3-yl]-8-fluoro-6,7-dihydro-5H-cyclopenta[f][1,3]benzoxazol-6-yl]methyl]-2-oxo-1-oxa-3,8-diazaspiro[4.5]decan-3-yl]-4H-pyrazino[2,3-b][1,4]oxazin-3-one]",1 µg/mL,–,–
"N[C@@H](CO)c1nc2cc3c(c(F)c2o1)CC(CN1CCC2(CC1)CN(c1cnc4c(n1)NC(=O)CO4)C(=O)O2)C3 (stereo partly drawn) [Example 143, 6-[8-[[2-[(1S)-1-Amino-2-hydroxy-ethyl]-8-fluoro-6,7-dihydro-5H-cyclopenta[f][1,3]benzoxazol-6-yl]methyl]-2-oxo-1-oxa-3,8-diazaspiro[4.5]decan-3-yl]-4H-pyrazino[2,3-b][1,4]oxazin-3-one]",–,0.25 µg/mL,–
"N[C@@H](CO)c1nc2cc3c(c(F)c2o1)CC(CN1CCC2(CC1)CN(c1cnc4c(n1)NC(=O)CO4)C(=O)O2)C3 (stereo partly drawn) [Example 144, 6-[8-[[2-[(1S)-1-Amino-2-hydroxy-ethyl]-8-fluoro-6,7-dihydro-5H-cyclopenta[f][1,3]benzoxazol-6-yl]methyl]-2-oxo-1-oxa-3,8-diazaspiro[4.5]decan-3-yl]-4H-pyrazino[2,3-b][1,4]oxazin-3-one]",0.25 µg/mL,–,–
"CN[C@@H](CO)c1nc2cc3c(c(F)c2o1)CC(CN1CCC2(CC1)CN(c1cnc4c(n1)NC(=O)CO4)C(=O)O2)C3 (stereo partly drawn) [Example 146, 6-[8-[[8-Fluoro-2-[(1S)-2-hydroxy-1-(methylamino)ethyl]-6,7-dihydro-5H-cyclopenta[f][1,3]benzoxazol-6-yl]methyl]-2-oxo-1-oxa-3,8-diazaspiro[4.5]decan-3-yl]-4H-pyrazino[2,3-b][1,4]oxazin-3-one]",0.5 µg/mL,–,–
"O=C1COc2ccc(N3CC4(CCN(CC5Cc6cc7nc([C@@H]8C[C@@H](O)CN8)oc7c(F)c6C5)CC4)OC3=O)nc2N1 (stereo partly drawn) [Example 147, 6-[8-[[8-Fluoro-2-[(2S,4R)-4-hydroxypyrrolidin-2-yl]-6,7-dihydro-5H-cyclopenta[f][1,3]benzoxazol-6-yl]methyl]-2-oxo-1-oxa-3,8-diazaspiro[4.5]decan-3-yl]-4H-pyrido[3,2-b][1,4]oxazin-3-one]",–,0.5 µg/mL,–
"O=C1COc2ccc(N3CC4(CCN(CC5Cc6cc7nc([C@@H]8C[C@@H](O)CN8)oc7c(F)c6C5)CC4)OC3=O)nc2N1 (stereo partly drawn) [Example 148, 6-[8-[[8-Fluoro-2-[(2S,4R)-4-hydroxypyrrolidin-2-yl]-6,7-dihydro-5H-cyclopenta[f][1,3]benzoxazol-6-yl]methyl]-2-oxo-1-oxa-3,8-diazaspiro[4.5]decan-3-yl]-4H-pyrido[3,2-b][1,4]oxazin-3-one]",1 µg/mL,–,–
C[C@H](C(=O)NCc1nc2cc3c(c(F)c2[nH]1)CC(CN1CCC2(CC1)CN(c1cnc4c(n1)NC(=O)CO4)C(=O)O2)C3)N(C)C (stereo partly shown) [Example 151],–,0.5 µg/mL,–
